# Laboratory results published in patent US6989242B1, “Car receptors and related molecules and methods” (The General Hospital Coporation, priority 1992, dated 2006).
# T1: CAR (Homo sapiens, UniProt Q14994)
# T1 construct: expressed in transfected cells
# T1 sequence (Q14994 1-348 isoform Q14994-2): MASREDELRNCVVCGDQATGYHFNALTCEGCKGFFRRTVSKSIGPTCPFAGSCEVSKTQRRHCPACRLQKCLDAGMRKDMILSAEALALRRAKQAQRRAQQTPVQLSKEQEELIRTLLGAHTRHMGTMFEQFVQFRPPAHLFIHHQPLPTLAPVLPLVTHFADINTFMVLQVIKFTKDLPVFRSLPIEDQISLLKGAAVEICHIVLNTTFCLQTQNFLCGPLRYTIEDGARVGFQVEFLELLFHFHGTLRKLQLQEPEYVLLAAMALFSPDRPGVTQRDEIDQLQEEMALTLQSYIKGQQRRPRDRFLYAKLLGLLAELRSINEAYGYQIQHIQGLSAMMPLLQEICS
# T2: mCAR2 (splice variant lacking exon 8, 107 bp out-of-frame deletion; 6 new residues replace last 78 of mCAR1) (Mus musculus, UniProt O35627-2 O35627-2:1-286)
# T2 sequence: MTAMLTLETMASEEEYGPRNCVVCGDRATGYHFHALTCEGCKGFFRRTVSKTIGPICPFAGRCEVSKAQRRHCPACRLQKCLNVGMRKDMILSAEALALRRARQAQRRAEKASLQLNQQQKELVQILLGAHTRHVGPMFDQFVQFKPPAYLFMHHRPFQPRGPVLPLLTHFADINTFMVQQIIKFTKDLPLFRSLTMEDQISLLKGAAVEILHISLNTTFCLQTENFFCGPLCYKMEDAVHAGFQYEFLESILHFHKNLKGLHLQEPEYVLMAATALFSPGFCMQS
# Key:
# TR/CAR chimera = experiment: Cotransfection of TR/CAR chimera with T3RE reporter, effect of added ligands; format: cell-based, human; conditions: JEG3 cells, charcoal-treated serum
# Text: To study the function of the putative ligand binding domain of the orphan, a chimeric receptor consisting of the C-terminal D, E and F domains of CAR (i.e., approximately amino acids 76-172, 173-319, and 320-348 of the CAR sequence, respectively) fused to the N-terminal A/B and C domains of TRβ was generated (termed TR/CAR), along with a control hybrid with the A/B and C domains of TR and the D, E and F domain of the glucocorticoid receptor (TR/GR). Vectors expressing these chimeras or the intact TR were cotransfected into JEG3 cells (ATCC Accession No: HTB 36) with reporter plasmids containing T3REs (i.e., of sequence […]; SEQ ID NO: 3) or GREs (from the MMTV promoter as described in Chandler et al., Cell 33:489, 1989) upstream of a reporter gene whose expression could be assayed. Transfections were carried out in the presence of serum treated with activated charcoal to remove T3 as well as other low molecular weight hydrophobic compounds that could act as CAR ligands.
# CAR = target: T1, CAR; experiment: Activation of the RARβ element by CAR in cotransfections, effect of protein kinase A/C pathway treatments; format: cell-based; conditions: cotransfection
# Text: Based on the constitutive activity of the TR/CAR chimera and the similarity of the DNA binding domain of CAR to other members of the superfamily, a number of response elements were screened for activation by the intact orphan in standard cotransfections. […] However, CAR did transactivate two wild type elements, the RAREs from the RARβ gene and the alcohol dehydrogenase (ADH) gene (i.e., […]; SEQ ID NO: 5). RAREs which were not transactivated by CAR included a potent up mutant version of the rat growth hormone gene T3RE/RARE (i.e., of sequence […]; SEQ ID NO:6; in tandem copies with the second copy inverted; described in Brent et al., Mol. Endocrinol. 3:1996, 1989) and the wild type version of the laminin T3RE/RARE (i.e., of sequence […]; SEQ ID NO: 8).
# The activation of the RARβ element by CAR is not affected by several treatments that activate or inactivate signal transduction pathways mediated by protein kinases A or C. Thus, CAR activation was not altered by addition of dibutyryl cyclic AMP, by short or long term treatments with phorbol esters, or by cotransfections with vectors expressing the specific protein kinase A inhibitor peptide.
# [1] = target: T2, mCAR2 (splice variant lacking exon 8, …); experiment: EMSA; alone; conditions: tags: GenBank variant of mCAR1
# Text: (§1) FIG. 7 is a photograph showing DNA binding by mCAR1 and mCAR2. mCAR1, mCAR2, RXR, and RAR proteins were expressed by in vitro translation and used for electrophoretic mobility shift assays with a βRARE probe as indicated. "S" indicates competition with the βRARE oligonucleotide, and "NS" competition with a nonspecific oligonucleotide. Equivalent amounts of mCAR1, mCAR2, and RAR were used in the binding reactions, as determined by ^35S-methionine labeling.
# (§2) For DNA binding studies, mCAR1, mCAR2, RAR, and RXR proteins were expressed using coupled in vitro transcription and translation (Promega, Inc.). Standard conditions were used for electrophoretic mobility shift assays with the DR-5 response element from the RARβ2 promoter (the βRARE) as the probe, as described for hCAR (MB67). In these experiments, mCAR1/RXR heterodimers bound with high affinity to the RARE from the RARβ2 isoform promoter (Sucov et al., Proc. Natl. Acad. Sci. USA 87:5392–5396, 1990; de The et al., Nature 343:177–180, 1990) (FIG. 7). […] This lack of mCAR2 binding was consistent with the absence of the C-terminal portion of the ligand/dimerization domain, which is essential for heterodimerization.
# mCAR2 + RXR = mCAR2 + RXR (Mus musculus, UniProt O35627-2;P19793 O35627-2:1-286,P19793:1-462); experiment: EMSA; with RXR
# mCAR2 + RXR, sequence (P19793 whole entry, one chain of several): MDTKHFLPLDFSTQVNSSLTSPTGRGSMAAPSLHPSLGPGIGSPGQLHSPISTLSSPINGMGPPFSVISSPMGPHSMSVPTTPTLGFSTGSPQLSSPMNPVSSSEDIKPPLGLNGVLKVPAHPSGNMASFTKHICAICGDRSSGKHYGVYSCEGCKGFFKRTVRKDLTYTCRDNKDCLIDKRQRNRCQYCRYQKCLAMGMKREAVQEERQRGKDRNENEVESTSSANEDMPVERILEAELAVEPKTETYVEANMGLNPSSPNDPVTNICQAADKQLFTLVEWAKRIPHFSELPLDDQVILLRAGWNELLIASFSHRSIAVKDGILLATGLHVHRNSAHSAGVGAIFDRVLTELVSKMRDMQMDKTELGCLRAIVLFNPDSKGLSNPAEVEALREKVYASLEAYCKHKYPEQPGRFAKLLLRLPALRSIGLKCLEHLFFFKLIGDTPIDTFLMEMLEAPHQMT
# Text: as §1, §2
# RAR + RXR = RAR + RXR (UniProt P10276;P19793 P10276:1-462,P19793:1-462); experiment: EMSA; conditions: chain copies: heterodimer (stated)
# RAR + RXR, sequence (P10276 whole entry, chain 1 of 2): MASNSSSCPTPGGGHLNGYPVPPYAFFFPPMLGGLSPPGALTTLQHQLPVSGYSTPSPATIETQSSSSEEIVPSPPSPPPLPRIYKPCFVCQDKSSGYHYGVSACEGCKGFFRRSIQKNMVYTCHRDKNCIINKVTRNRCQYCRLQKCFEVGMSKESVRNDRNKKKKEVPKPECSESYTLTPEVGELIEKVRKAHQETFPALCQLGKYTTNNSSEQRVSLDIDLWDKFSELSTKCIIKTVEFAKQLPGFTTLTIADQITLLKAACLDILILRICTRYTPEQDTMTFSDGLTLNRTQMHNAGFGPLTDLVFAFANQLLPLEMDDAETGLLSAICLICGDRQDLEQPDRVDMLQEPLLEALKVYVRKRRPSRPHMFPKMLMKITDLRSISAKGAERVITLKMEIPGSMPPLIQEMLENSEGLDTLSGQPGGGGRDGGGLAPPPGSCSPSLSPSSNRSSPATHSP
# RAR + RXR, sequence (P19793 whole entry, chain 2 of 2): as the sequence (P19793 whole entry, one chain of several) above
# Text: as §1, §2
# mCAR1 + RXR = mCAR1 + RXR (Mus musculus, UniProt O35627;P19793 O35627:1-358,P19793:1-462); experiment: EMSA; high affinity; indistinguishable from RAR/RXR; conditions: chain copies: heterodimer (stated)
# mCAR1 + RXR, sequence (P19793 whole entry, one chain of several): as above
# Text: as §1, §2
# βRARE = experiment: Transactivation of βRARE-TK luciferase reporter in cotransfected HepG2 cells; format: cell-based, human; conditions: various cell types and conditions, no added ligand
# Text: To determine whether mCAR1 transactivated the βRARE in the absence of retinoids or any other exogenously added ligands, this construct was cotransfected with a luciferase reporter plasmid in which 3 copies of the βRARE were inserted upstream of the TK promoter. To carry out these experiments, HepG2 cells were maintained and transfected using calcium phosphate or DEAE dextran (Ausubel et al., Current Protocols in Molecular Biology, Greene Pub. Assoc.: New York, 1997). mCAR1 and mCAR2 expression vectors were generated by inserting appropriate fragments into the vector CDM8 (Seed, Nature 329:840-842, 1987), as previously described for hCAR. The luciferase reporter plasmid (Gulick et al., Proc. Natl. Acad. Sci. USA 91:11012-11016, 1994) contained three copies of the βRARE upstream of the TK promoter. The reporter plasmids with wild type and mutant versions of the RARβ2 promoter have been described (Moghal et al., Mol. Cell. Biol. 15:3945-3959, 1995). […]
# For the TK reporter, pairs of 30 mm dishes were each transfected with 2 μg of reporter and pTKGH, and a total of 2 μg of mammalian expression vector. […] Transfections were carried out in media containing 10% charcoal stripped serum, and luciferase activity was determined using the Promega luciferase assay system as described by the manufacturer. […]
molecule,measurement,setting,value
C[C@H](CCCC(C)(C)O)[C@H]1CC[C@H]2[C@@H]3CC=C4C[C@@H](O)CC[C@]4(C)[C@H]3CC[C@]12C [25-hydroxy cholesterol],effect of added ligand on ligand-independent activation of T3RE reporter by TR/CAR chimera,TR/CAR chimera,not altered
N[C@@H](Cc1cc(I)c(Oc2ccc(O)c(I)c2)c(I)c1)C(=O)O [T3],effect of added ligand on ligand-independent activation of T3RE reporter by TR/CAR chimera,TR/CAR chimera,not altered
C[C@]12CC[C@@H]3c4ccc(O)cc4CC[C@H]3[C@@H]1CC[C@@H]2O [astraddle],effect of added ligand on ligand-independent activation of T3RE reporter by TR/CAR chimera,TR/CAR chimera,not altered
CCCC(=O)Nc1ncnc2c1ncn2[C@@H]1O[C@@H]2COP(=O)(O)O[C@H]2[C@H]1OC(=O)CCC [dibutyryl cyclic AMP],effect on CAR activation of the RARβ element,CAR,not altered
CC1=C(/C=C/C(C)=C/C=C/C(C)=C/C(=O)O)C(C)(C)CCC1 [resinoid acid],effect of added ligand on ligand-independent activation of T3RE reporter by TR/CAR chimera,TR/CAR chimera,not altered
C[C@]12CC[C@H]3[C@@H](CCC4=CC(=O)CC[C@@]43C)[C@@H]1CC[C@@H]2O [testosterone],effect of added ligand on ligand-independent activation of T3RE reporter by TR/CAR chimera,TR/CAR chimera,not altered
betaRARE (RARbeta2 promoter DR-5) (dsDNA) DNA 1: GGGTAGGGTTCACCGAAAGTTCACTCG DNA 2: CGAGTGAACTTTCGGTGAACCCTACCC,binding result,[1],no binding
same,binding result,mCAR2 + RXR,no binding
same,binding result,RAR + RXR,binds
same,binding result,mCAR1 + RXR,binds
"hCAR: human CAR receptor, 348 amino acids, SEQ ID NO:10 (protein, listed as Homo sapiens) MASREDELRNCVVCGDQATGYHFNALTCEGCKGFFRRTVSKSIGPTCPFAGSCEVSKTQRRHCPACRLQKCLDAGMRKDMILSAEALALRRAKQAQRRAQQTPVQLSKEQEELIRTLLGAHTRHMGTMFEQFVQFRPPAHLFIHHQPLPTLAPVLPLVTHFADINTFMVLQVIKFTKDLPVFRSLPIEDQISLLKGAAVEICHIVLNTTFCLQTQNFLCGPLRYTIEDGARVGFQVEFLELLFHFHGTLRKLQLQEPEYVLLAAMALFSPDRPGVTQRDEIDQLQEEMALTLQSYIKGQQRRPRDRFLYAKLLGLLAELRSINEAYGYQIQHIQGLSAMMPLLQEICS",transactivation of βRARE reporter,βRARE,20-100 fold
